{"source": "paper PMC7450938", "about": "“Prenatal to early postnatal neurotrophic treatment prevents Alzheimer-like behavior and pathology in mice” (Alzheimer's Research & Therapy, 2020)", "key": {"tau": {"system": "tau", "experiment": "Western blots of total and hyperphosphorylated tau in hippocampus", "assay_type": "in vivo, mouse", "method": "(§1) We treated 2- to 3-month-old pregnant 3xTg-AD and WT mothers with compound P021 in mouse chow, or with vehicle feed as control at E8 until their offspring/pups reached PND21, at which point the offspring were separated and put on standard mouse chow (Fig. 1). Treatment was administered as 60 nmol peptide/g formulated diet (Research Diets; New Brunswick, NJ, USA). The vehicle-treated control animals received the same diet but without the peptide. On average, each mouse consumed ~ 2.7 g diet/day.\nThe animals were anesthetized with an overdose of sodium pentobarbital (125 mg/kg) and transcardially perfused with 0.1 M phosphate-buffered saline (PBS). After perfusion, the brains were removed from the skull immediately. The left hemisphere was dissected into hippocampus, cerebral cortex, cerebellum, and brain stem; immediately frozen on dry ice; and then stored at − 80 °C for biochemical analysis.\n(§2) The tissue from the left cerebral hemisphere from each mouse stored at− 80 °C was homogenized in a Teflon-glass homogenizer to generate 10% (w/v) homogenate. The pre-chilled homogenization buffer contained 50 mM Tris–HCl (pH 7.4), 8.5% sucrose, 2 mM EDTA, 2 mM EGTA, 10 mM β-mercaptoethanol plus the following protease and phosphatase inhibitors: 0.5 mM AEBSF, 10 μg/mL aprotinin, 10 μg/mL leupeptin, 4 μg/mL pepstatin, 5 mM benzamidine, 20 mM β-glycerophosphate, 50 mM sodium fluoride, 1 mM sodium orthovanadate, and 100 nM okadaic acid. Each homogenate was boiled in 2× Laemmli sample buffer for 5 min, and protein concentration was measured by PierceTM 660-nm protein assay (Thermo Scientific; Rockford, IL, USA).\n(§3) The samples were subjected to 10% SDS-PAGE and electro-transferred onto Immobilon-P membranes (EMD Millipore; Billerica, MA, USA). The blots were then probed with primary antibodies (Table 1) and developed with the corresponding HRP-conjugated secondary antibody and enhanced chemiluminescence (Pierce Biotechnology, Rockford, IL, USA). Densitometric quantification of protein bands in Western blots was analyzed using Multi Gauge version 3.0 software (FUJIFILM North America; Valhalla, NY, USA)."}, "Aβ plaques [1]": {"system": "Aβ plaques", "experiment": "Aβ immunofluorescence, amyloid plaques in brain sections", "assay_type": "in vivo, mouse", "details": "22-month-old 3xTg-AD mice, P021 diet E8-PND21", "method": "as §1\nThe complete right hemisphere was immersion-fixed in 4% paraformaldehyde in 0.1 M PBS for 24–48 h, followed by cryoprotection in a 30% sucrose solution at 4 °C overnight. Later, the 40-μm-thick sagittal sections were cut on a freezing microtome. […]\nImmunofluorescence staining was performed on free-floating sections, and every 12th brain section was chosen for densitometry and quantification. For immunohistochemical quantification, six brain sections of four animals per group were analyzed. All stainings for fluorescence-intensity quantification were carried out under identical conditions, including all tissue samples for a particular staining processed at the same time, and experimental and control sections photographed under identical settings. […]"}, "Aβ plaques [2]": {"system": "Aβ plaques", "experiment": "Thioflavin-S-positive plaque load", "assay_type": "in vivo", "details": "subiculum, 22-month-old 3xTg-AD mice; 6 sections per mouse, n = 4 mice; P021 diet E8-PND21", "method": "as §1\nThioflavin-S–positive (TS+) plaque load was quantified on every 12th section (roughly six sections per set) of four animals from 22-month-old groups. A modified thioflavin-S staining protocol was used as follows. Free-floating brain sections were washed in large volumes of distilled water, incubated in 0.25% KMnO4 for 4–5 min, washed with water, and treated with a solution of 1% K2S2O5 and 1% oxalic acid for 40–60 s until the brown color was completely washed out. Sections were then incubated with 0.05% thioflavin-S in water in the dark for 8 min, followed by differentiation in 80% ethanol twice for 1 min each. […] The images were taken by using a Nikon 90i fluorescent microscope, threshold using ImageJ (v.1.46r), and TS+ plaque load was quantified in the hippocampus CA1 and subiculum areas."}, "APP": {"system": "APP", "experiment": "Western blots of p-APP (Thr668) in hippocampus", "assay_type": "in vivo, mouse", "details": "22-month-old 3xTg-AD mice, normalized with GAPDH, n = 4, P021 diet E8-PND21", "method": "as §1\nThe tissue from the left cerebral hemisphere from each mouse stored at− 80 °C was homogenized in a Teflon-glass homogenizer to generate 10% (w/v) homogenate. […] Each homogenate was boiled in 2× Laemmli sample buffer for 5 min, and protein concentration was measured by PierceTM 660-nm protein assay (Thermo Scientific; Rockford, IL, USA).\nThe samples were subjected to 10% SDS-PAGE and electro-transferred onto Immobilon-P membranes (EMD Millipore; Billerica, MA, USA). […] Densitometric quantification of protein bands in Western blots was analyzed using Multi Gauge version 3.0 software (FUJIFILM North America; Valhalla, NY, USA)."}, "[3]": {"system": "NR1, NR2A, NR2B, GluR1, GluR2&3, p-CREB", "experiment": "Western blots of glutamate receptors and CREB in hippocampus", "assay_type": "in vivo, mouse", "method": "as §1, §2, §3"}, "[4]": {"system": "PSD95, synapsin, synaptophysin, MAP2", "experiment": "Western blots of dendritic and synaptic markers in hippocampus", "assay_type": "in vivo, mouse", "details": "3xTg-AD mice", "method": "as §1, §2, §3"}, "[5]": {"details": "cited from earlier work", "excerpt": "A central objective of the field of dementia research is to inhibit, or to at least effectively modify, the course of AD, but at present, no effective treatment or cure for AD is available. CNTF is a pluripotent neurotrophic factor that has a potent effect on the development and maintenance of the nervous system, inducing neuronal survival and differentiation by stimulating gene expression of sensory, sympathetic, and motor neurons. However, the clinical therapeutic usage of recombinant neurotrophic factors is limited because of the insurmountable hurdles of unfavorable pharmacokinetic ..."}, "3xTg-AD mice": {"system": "3xTg-AD mice", "details": "chronic treatment, moderate and severe stages of the pathology; cited from earlier work", "excerpt": "(§4) Chronic treatment with P021 ..."}, "aged Fisher rats": {"system": "aged Fisher rats", "details": "oral administration; cited from earlier work", "excerpt": "as §4"}, "[6]": {"details": "4-month-old 3xTg-AD mice, P021 diet E8-PND21, vs 3xTg-Vh, n = 4"}, "[7]": {"details": "22-month-old 3xTg-AD mice, P021 diet E8-PND21"}, "[8]": {"details": "22-month-old 3xTg-AD mice, P021 diet E8-PND21, vs 3xTg-Vh, n = 4"}, "[9]": {"details": "4 months, 3xTg-AD mice, P021 diet E8-PND21, n = 3-4/group"}, "[10]": {"details": "22 months, 3xTg-AD mice, P021 diet E8-PND21, n = 3-4/group"}, "[11]": {"details": "4 months, P021 diet E8-PND21, n = 3-4/group"}}}
{"substance": "Ac-DGGL^AG-NH2 [P021, 4-mer CNTF small molecule peptide mimetic to which adamantylated glycine was added at the C-terminal]", "values": [{"measurement": "human-specific tau (antibody 43D)", "setting": "tau; [6]", "value": "decreased"}, {"measurement": "tau hyperphosphorylation at Ser202/Thr205 (antibody AT8)", "setting": "tau; [6]", "value": "decrease"}, {"measurement": "total tau (antibody R134d)", "setting": "tau; [6]", "value": "decreased"}, {"measurement": "human tau (antibody 43D)", "setting": "tau; [7]", "value": "did not change significantly"}, {"measurement": "hyperphosphorylated tau (antibody pT212)", "setting": "tau; [7]", "value": "did not change significantly"}, {"measurement": "tau hyperphosphorylation at Ser202/Thr205 (antibody AT8)", "setting": "tau; [8]", "value": "decreased"}, {"measurement": "tau hyperphosphorylation at Ser-396/404 (antibody PHF-1)", "setting": "tau; [8]", "value": "decreased"}, {"measurement": "total tau (antibody R134d)", "setting": "tau; [8]", "value": "only an insignificant decrease"}, {"measurement": "plaque-occupied area (Aβ immunofluorescence)", "setting": "Aβ plaques [1]; one half of the brain, 6 sections per mouse, n = 4 mice", "value": "significantly decreased"}, {"measurement": "amyloid plaques detected by Aβ antibody", "setting": "Aβ plaques [1]; subiculum, piriform cortex, forebrain and hippocampus, vs 3xTg-Vh", "value": "markedly reduced"}, {"measurement": "plaque burden by thioflavin-S staining", "setting": "Aβ plaques [2]", "value": "a significant decrease"}, {"measurement": "level of phosphorylation of APP at Thr668", "setting": "APP", "value": "rescued"}, {"measurement": "level of GluR1", "setting": "[3]; [9]", "value": "increased"}, {"measurement": "level of NR1", "setting": "[3]; [9]", "value": "increased"}, {"measurement": "level of NR2A", "setting": "[3]; [9]", "value": "increased"}, {"measurement": "level of phosphorylated CREB (p-CREB)", "setting": "[3]; [9]", "value": "increased"}, {"measurement": "level of GluR2&3", "setting": "[3]; 4 months, among groups", "value": "no significant changes"}, {"measurement": "level of NR2B", "setting": "[3]; 4 months, among groups", "value": "no significant changes"}, {"measurement": "level of NR1", "setting": "[3]; [10]", "value": "increased"}, {"measurement": "level of NR2A", "setting": "[3]; [10]", "value": "increased"}, {"measurement": "level of p-CREB", "setting": "[3]; [10]", "value": "increased"}, {"measurement": "level of GluR1", "setting": "[3]; 22 months, among groups", "value": "no significant changes"}, {"measurement": "level of GluR2 and 3", "setting": "[3]; 22 months, among groups", "value": "no significant changes"}, {"measurement": "level of NR2B", "setting": "[3]; 22 months, among groups", "value": "no significant changes"}, {"measurement": "MAP2 deficit", "setting": "[4]; [11]", "value": "only the PSD 95 deficit was rescued"}, {"measurement": "PSD95 deficit", "setting": "[4]; [11]", "value": "rescued"}, {"measurement": "synapsin deficit", "setting": "[4]; [11]", "value": "only the PSD 95 deficit was rescued"}, {"measurement": "synaptophysin deficit", "setting": "[4]; [11]", "value": "only the PSD 95 deficit was rescued"}, {"measurement": "levels of PSD95, synapsin, synaptophysin, and MAP2", "setting": "[4]; 22 months, P021 diet E8-PND21, not significant", "value": "a trend for an increase"}, {"measurement": "BBB permeability", "setting": "[5]", "value": "BBB-permeable"}, {"measurement": "solubility in water", "setting": "[5]", "value": "water-soluble"}, {"measurement": "systemic adverse effects", "setting": "[5]", "value": "does not induce the systemic adverse effects associated with recombinant CNTF or BDNF"}, {"measurement": "pharmacokinetic properties", "setting": "[5]; oral administration", "value": "suitable pharmacokinetic properties for oral administration"}, {"measurement": "tau pathology", "setting": "3xTg-AD mice", "value": "significantly reduced"}, {"measurement": "cognitive aging", "setting": "aged Fisher rats", "value": "could rescue cognitive aging"}]}
